For one series, the target named is Kv11.1 (hERG) (Homo sapiens (Human), UniProt Q12809). Kind of series: Kv11.1 (hERG) ion channel activity (patch clamp assay), HEK293 cells transfected with hERG gene. (Block of hERG is tested as a sign of cardiac risk.)
The next series addresses DNA-PK (Homo sapiens (Human), UniProt P78527). Kind of series: DNA-PK assay (biochemical), flashplate 33P-ATP kinase assay. In outline:
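Reactions ran in streptavidin-coated flashplates and were halted by 200 mM EDTA, with a further 30 min at room temperature before saline washing.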

Series [1] concerns the target DNA-PK phosphorylation at serine 2056 (Homo sapiens (Human), UniProt P78527). Kind of series: DNA-PK phosphorylation at serine 2056 (cellular), bleomycin-treated HCT116 cells, ELISA. The format is cell-based. The conditions noted are these: read-out: IC50 pDNA-PK. In outline: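 HCT116 cells were treated with 10 μM bleomycin plus test compounds for six hours at 37 °C. Phospho-Ser2056 DNA-PK measured by chemiluminescent ELISA, normalised to total DNA-PKcs signal; DMSO control as blank.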
In general terms: ELISA stands for enzyme-linked immunosorbent assay.

Where [2] appears, read: read-out: Ki [Kv1.11 hERG], hERG patch clamp assay (cells without asterisk).
[3] abbreviates: cellular DNA-PK phosphorylation at serine 2056, HCT116.
[4] abbreviates: read-out: Ki [Kv1.11 hERG], patch clamp, HEK293 transfected with hERG gene.
The mark [5] stands for this setting: cellular, HCT116 cells, 10 μM bleomycin, six hours.
The mark [6] stands for this setting: Ki [Kv1.11 hERG], patch clamp, HEK293 transfected with hERG gene.
Where [7] appears, read: read-out: Ki [Kv1.11 hERG], Table 5.
Where [8] appears, read: Ki [Kv1.11 hERG], hERG patch clamp assay (cells without asterisk).

Molecules are shown by their SMILES. Like-named read-outs stand apart in the source and are kept apart here. Some results are limits rather than exact numbers.

Kv11.1 (hERG), sequence (Q12809 whole entry): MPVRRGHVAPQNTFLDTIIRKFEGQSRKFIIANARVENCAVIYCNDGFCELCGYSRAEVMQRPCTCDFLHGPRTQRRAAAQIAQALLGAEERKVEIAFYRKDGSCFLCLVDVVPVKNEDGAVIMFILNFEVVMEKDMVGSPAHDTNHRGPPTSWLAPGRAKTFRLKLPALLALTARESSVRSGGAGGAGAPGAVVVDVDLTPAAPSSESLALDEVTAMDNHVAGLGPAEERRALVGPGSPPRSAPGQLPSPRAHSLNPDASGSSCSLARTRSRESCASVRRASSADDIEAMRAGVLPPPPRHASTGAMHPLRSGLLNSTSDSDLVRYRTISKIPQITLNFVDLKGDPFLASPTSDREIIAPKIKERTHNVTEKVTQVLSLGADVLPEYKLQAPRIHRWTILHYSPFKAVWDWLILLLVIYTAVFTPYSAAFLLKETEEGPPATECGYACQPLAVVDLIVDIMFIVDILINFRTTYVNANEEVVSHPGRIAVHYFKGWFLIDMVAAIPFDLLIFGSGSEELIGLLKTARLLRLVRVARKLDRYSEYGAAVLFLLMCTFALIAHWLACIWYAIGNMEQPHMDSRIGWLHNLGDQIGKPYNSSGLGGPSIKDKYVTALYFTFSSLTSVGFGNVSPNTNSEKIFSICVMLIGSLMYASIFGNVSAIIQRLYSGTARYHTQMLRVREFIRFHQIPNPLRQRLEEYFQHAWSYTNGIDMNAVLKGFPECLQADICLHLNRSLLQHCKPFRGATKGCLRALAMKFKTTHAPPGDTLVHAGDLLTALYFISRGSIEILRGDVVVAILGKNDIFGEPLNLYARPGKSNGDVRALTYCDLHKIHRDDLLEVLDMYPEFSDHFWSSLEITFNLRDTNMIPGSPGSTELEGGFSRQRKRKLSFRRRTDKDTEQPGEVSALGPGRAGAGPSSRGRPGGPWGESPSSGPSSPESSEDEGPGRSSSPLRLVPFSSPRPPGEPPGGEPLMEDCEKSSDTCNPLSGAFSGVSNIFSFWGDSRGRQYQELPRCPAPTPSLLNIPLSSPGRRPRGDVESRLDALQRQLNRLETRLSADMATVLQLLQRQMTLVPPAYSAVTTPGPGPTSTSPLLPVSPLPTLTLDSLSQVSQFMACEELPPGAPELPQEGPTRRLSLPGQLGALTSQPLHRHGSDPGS

The term Ki denotes the dissociation constant of the complex between target and ligand, obtained from inhibition or displacement. By IC50 is commonly meant the midpoint of a concentration-inhibition curve. Regarding `Cc1nccnc1[C@H](O)c1ccc(F)c(-c2ncnc3cc(N4CCOCC4)cc(F)c23)c1` [Example 248, (R)-[4-Fluoro-3-(5-fluoro-7-morpholin-4-ylquinazolin-4-yl)-phenyl]-(3-methyl-pyrazin-2-yl)-methanol], the Ki at Kv11.1 (hERG) (setting [2]) is > 25 µM. Also, the IC50 on DNA-PK (biochemical DNA-PK assay) is < 3 nM; in series [1] (setting [3]), < 0.5 µM.

As for `O[C@H](c1ccc(F)c(-c2ncnc3cc(N4CCOCC4)ccc23)c1)c1nccnc1Cl` [Example 27, (R)-(3-Chloro-pyrazin-2-yl)-[4-fluoro-3-(7-morpholin-4-yl-quinazolin-4-yl)phenyl]-methanol], the Ki at Kv11.1 (hERG) (setting [4]) is > 25 µM. Besides, the IC50 at DNA-PK (enzymatic, 5 μM ATP) was < 3 nM; in series [1] (setting [5]), < 0.5 µM.

In turn, `O[C@@H](c1ccc(F)c(-c2ncnc3cc(N4CCOCC4)ccc23)c1)c1nccnc1Cl` [Example 28, (S)-(3-Chloro-pyrazin-2-yl)-[4-fluoro-3-(7-morpholin-4-yl-quinazolin-4-yl)phenyl]-methanol] returned a Ki at Kv11.1 (hERG) (setting [6]) of 15 to 25 µM. The IC50 lay within 7 to 30 nM on DNA-PK (enzymatic, 5 μM ATP) and 5 to 10 µM in series [1] (setting [5]).

On to `CNCc1csc(C(O)c2cc(-c3ncnc4cc(N5CCOCC5)ccc34)c(F)cc2Cl)n1` (stereo not drawn) [Example 143, [2-Chloro-4-fluoro-5-(7-morpholin-4-ylquinazolin-4-yl)phenyl]-(4-methylaminomethylthiazol-2-yl)methanol], for which the Ki on Kv11.1 (hERG) (Ki [Kv1.11 hERG], Table 5) is 10 to 15 µM. In addition, the IC50 against DNA-PK (Table 5) is 7 to 30 nM; in series [1] (Table 5, HCT116 cells), 5 to 10 µM.

On to `OC(c1cccc(-c2ncnc3cc(N4CCOCC4)ccc23)c1)(c1nccs1)C(F)(F)F` (stereo not drawn) [Example 159, 2,2,2-Trifluoro-1-[3-(7-morpholin-4-yl-quinazolin-4-yl)-phenyl]-1-thiazol-2-ylethanol], for which, on Kv11.1 (hERG) (setting [7]), the Ki was < 10 µM. The IC50 against DNA-PK (Table 5) was in the range of 7 to 30 nM; in series [1] (Table 5, HCT116 cells), 10 to 30 µM.

For `CC(C)n1cc(C(O)c2ccc(F)c(-c3ncnc4cc(N5CCOCC5)ccc34)c2)cn1` (stereo not drawn) [Example 197, [4-Fluoro-3-(7-morpholin-4-yl-quinazolin-4-yl)-phenyl]-(1-isopropyl-1H-pyrazol-4-yl)-methanol], the Ki at Kv11.1 (hERG) (setting [7]) is < 10 µM. Besides, the 50% inhibitory concentration (IC50) against DNA-PK (Table 5) lay in the range of 3 to 7 nM; in series [1] (Table 5, HCT116 cells), 5 to 10 µM.

Turning to `COc1cc(C)c(C(O)c2cc(-c3ncnc4cc(N5CCOCC5)ccc34)c(F)cc2Cl)nn1` (stereo not drawn) [Example 109, [2-Chloro-4-fluoro-5-(7-morpholin-4-yl-quinazolin-4-yl)-phenyl]-(6-methoxy-4-methylpyridazin-3-yl)methanol], at Kv11.1 (hERG) (setting [4]), the Ki is > 25 µM. The IC50 against DNA-PK (enzymatic, 5 μM ATP) was > 30 nM; in series [1] (setting [5]) it was 5 to 10 µM.

On Kv11.1 (hERG) (setting [6]), `OC(c1ccc(F)c(-c2ncnc3cc(N4CCOCC4)ccc23)c1)c1ccc(OC(F)F)nn1` (stereo not drawn) [Example 121, (6-Difluoro-methoxy-pyridazin-3-yl)-[4-fluoro-3-(7-morpholin-4-yl-quinazolin-4-yl)-phenyl]methanol] came in with a Ki of 15 to 25 µM. Further, the IC50 against DNA-PK (enzymatic, 5 μM ATP) lay within 3 to 7 nM; in series [1] (setting [5]), 0.5 to 5 µM.

On Kv11.1 (hERG) (setting [6]), `OC(c1cc(-c2ncnc3cc(N4CCOCC4)ccc23)c(F)cc1Cl)c1nccnc1Cl` (stereo not drawn) [Example 64, [2-Chloro-4-fluoro-5-(7-morpholin-4-yl-quinazolin-4-yl)phenyl]-(3-chloropyrazin-2-yl)-methanol] had an inhibitory constant (Ki) of 10 to 15 µM. Besides, the IC50 against DNA-PK (enzymatic, 5 μM ATP) is 3 to 7 nM; in series [1] (setting [5]), < 0.5 µM.

For the molecule `COc1ncc(Cl)nc1C(O)c1ccc(F)c(-c2ncnc3cc(N4CCOCC4)ccc23)c1` (stereo not drawn) [Example 25, (6-Chloro-3-methoxy-pyrazin-2-yl)-[4-fluoro-3-(7-morpholin-4-yl-quinazolin-4-yl)phenyl]-methanol], at Kv11.1 (hERG) (setting [4]), the Ki was < 10 µM. In addition, the IC50 against DNA-PK (enzymatic, 5 μM ATP) was 3 to 7 nM; in series [1] (setting [5]), < 0.5 µM.

Consider `Oc1ncnc(C(O)c2cc(-c3ncnc4cc(N5CCOCC5)ccc34)ccc2Cl)c1Cl` (stereo not drawn) [Example 330, 5-Chloro-6-{[2-chloro-5-(7-morpholin-4-yl-quinazolin-4-yl)-phenyl]hydroxy-methyl}pyrimidin-4-ol], for which, on Kv11.1 (hERG) (setting [2]), the Ki was > 25 µM. The values for the IC50 (against DNA-PK (biochemical DNA-PK assay); in series [1] (setting [3])) were 7 to 30 nM and 10 to 30 µM, respectively.

With `OC(c1ccc2nccn2n1)c1cc(-c2ncnc3cc(N4CCOCC4)ccc23)c(F)cc1F` (single isomer, unassigned) [Example 21, [2,4-Difluoro-5-(7-morpholin-4-yl-quinazolin-4-yl)phenyl]-imidazo[1,2-b]pyridazin-6-ylmethanol], the Ki on Kv11.1 (hERG) (setting [4]) is > 25 µM. Also, the half-maximal inhibitory concentration (IC50) at DNA-PK (enzymatic, 5 μM ATP) is < 3 nM; in series [1] (setting [5]), < 0.5 µM.

Take `OC(c1cc(F)c(F)c(-c2ncnc3cc(N4CCOCC4)ccc23)c1)c1nccs1` (stereo not drawn) [Example 179, [3,4-Difluoro-5-(7-morpholin-4-yl-quinazolin-4-yl)-phenyl]thiazol-2-yl-methanol]: the Ki at Kv11.1 (hERG) (setting [7]) was < 10 µM. Also, the IC50 at DNA-PK (Table 5) lay within 3 to 7 nM; in series [1] (Table 5, HCT116 cells), 0.5 to 5 µM.

Take `CCn1nc(C(O)c2cc(-c3ncnc4cc(N5CCOCC5)ccc34)c(F)cc2Cl)ccc1=O` (stereo not drawn) [Example 96, 6{[2-Chloro-4-fluoro-5-(7-morpholin-4-yl-quinazolin-4-yl)phenyl]-hydroxymethyl}-2-ethyl-2H-pyridazin-3-one]: the Ki at Kv11.1 (hERG) (setting [4]) is > 25 µM. The IC50 is 7 to 30 nM against DNA-PK (enzymatic, 5 μM ATP) and 0.5 to 5 µM in series [1] (setting [5]).

In the case of `Cn1c(C(O)c2cc(-c3ncnc4cc(N5CCOCC5)ccc34)ccc2Cl)cccc1=O` (stereo not drawn) [Example 400, 6-{[2-Chloro-5-(7-morpholin-4-yl-quinazolin-4-yl)-phenyl]hydroxy-methyl}-1-methyl-1H-pyridin-2-one], the Ki on Kv11.1 (hERG) (setting [8]) lay within 15 to 25 µM. Moreover, the IC50 on DNA-PK (biochemical DNA-PK assay) is < 3 nM; in series [1] (setting [3]) it was < 0.5 µM.

Regarding `Cn1nc(C(O)c2ccc(F)c(-c3ncnc4cc(N5CCOCC5)ccc34)c2F)ccc1=O` (stereo not drawn) [Example 220, 6-{[2,4-Difluoro-3-(7-morpholin-4-yl-quinazolin-4-yl)-phenyl]hydroxy-methyl}-2-methyl-2H-pyridazin-3-one], on Kv11.1 (hERG) (read-out: Ki [Kv1.11 hERG], Table 7), the Ki was > 25 µM. Also, the IC50 was > 30 nM against DNA-PK (Table 7) and 5 to 10 µM in series [1] (Table 7, HCT116 cells).

As for `COc1ccc([C@H](O)c2ccc(F)c(-c3ncnc4cc(N5CCOCC5)ccc34)c2)nn1` [Example 71, (R)-[4-Fluoro-3-(7-morpholin-4-yl-quinazolin-4-yl)phenyl]-(6-methoxypyridazin-3-yl)methanol], on Kv11.1 (hERG) (setting [4]), the Ki is > 25 µM. The IC50 against DNA-PK (enzymatic, 5 μM ATP) was < 3 nM; in series [1] (setting [5]) it was 0.5 to 5 µM.

Molecule `COc1ccc(C(O)c2cc(-c3ncnc4cc(N5CCOCC5)ccc34)c(F)cc2F)cn1` (stereo not drawn) [Example 221, [2,4-Difluoro-5-(7-morpholin-4-yl-quinazolin-4-yl)-phenyl]-(6-methoxy-pyridin-3-yl)methanol] registered a Ki at Kv11.1 (hERG) (Ki [Kv1.11 hERG], Table 7) of 15 to 25 µM. Also, the IC50 lay in the range of 3 to 7 nM against DNA-PK (Table 7) and 0.5 to 5 µM in series [1] (Table 7, HCT116 cells).

On Kv11.1 (hERG) (setting [8]), `COc1nccnc1C(O)c1cc(-c2ncnc3cc(N4CCOCC4)ccc23)c(F)cc1F` (stereo not drawn) [Example 453, [2,4-Difluoro-5-(7-morpholin-4-yl-quinazolin-4-yl)-phenyl]-(3-methoxy-pyrazin-2-yl)-methanol] came in with a Ki of 10 to 15 µM. Further, the figures for the IC50 (against DNA-PK (biochemical DNA-PK assay); in series [1] (setting [3])) were 3 to 7 nM and < 0.5 µM, respectively.

Regarding `OC(c1ccnnc1)c1cc(-c2ncnc3cc(N4CCOCC4)ccc23)c(F)cc1Cl` (stereo not drawn) [Example 36, [2-Chloro-4-fluoro-5-(7-morpholin-4-yl-quinazolin-4-yl)phenyl]-pyridazin-4-ylmethanol], on Kv11.1 (hERG) (setting [4]), the Ki is > 25 µM. In addition, the IC50 against DNA-PK (enzymatic, 5 μM ATP) was < 3 nM; in series [1] (setting [5]), < 0.5 µM.

As for `Cc1nccnc1C(O)c1ccc(F)c(-c2ncnc3cc(N4CCOCC4)c(F)cc23)c1` (stereo not drawn) [Example 283, [4-Fluoro-3-(6-fluoro-7-morpholin-4-yl-quinazolin-4-yl)-phenyl]-(3-methyl-pyrazin-2-yl)-methanol], the Ki on Kv11.1 (hERG) (setting [2]) is > 25 µM. Also, the half-inhibitory concentration (IC50) lay within 7 to 30 nM at DNA-PK (biochemical DNA-PK assay) and 10 to 30 µM in series [1] (setting [3]).

On Kv11.1 (hERG) (setting [6]), `N#CCOc1ccc(C(O)c2cc(-c3ncnc4cc(N5CCOCC5)ccc34)c(F)cc2Cl)nn1` (stereo not drawn) [Example 119, (6-{(2-Chloro-4-fluoro-5-(7-morpholin-4-yl-quinazolin-4-yl)-phenyl] hydroxy-methyl}pyridazin-3-yl-oxy)acetonitrile] gave a Ki of 15 to 25 µM. Besides, the IC50 is < 3 nM at DNA-PK (enzymatic, 5 μM ATP) and < 0.5 µM in series [1] (setting [5]).

In the case of `Cc1cc(C(O)c2ccc(F)c(-c3ncnc4cc(N5CCOCC5)ccc34)c2)n(C)c(=O)c1` (stereo not drawn) [Example 340, 6-{[4-Fluoro-3-(7-morpholin-4-yl-quinazolin-4-yl)-phenyl]hydroxy-methyl}-1,4-dimethyl-1H-pyridin-2-one], the Ki at Kv11.1 (hERG) (setting [2]) was > 25 µM. In addition, the IC50 was < 3 nM on DNA-PK (biochemical DNA-PK assay) and 0.5 to 5 µM in series [1] (setting [3]).

As to `OC(c1cccnn1)c1cc(-c2ncnc3cc(N4CCOCC4)ccc23)ccc1Cl` (single isomer, unassigned) [Example 470, [2-Chloro-5-(7-morpholin-4-yl-quinazolin-4-yl)-phenyl]pyridazin-3-yl-methanol], on Kv11.1 (hERG) (setting [2]), the inhibition constant (Ki) is > 25 µM. Also, the half-maximal inhibitory concentration (IC50) against DNA-PK (biochemical DNA-PK assay) is 3 to 7 nM; in series [1] (setting [3]), < 0.5 µM.

The record behind these values is US9732094B2, “Arylquinazolines” (Merck Patent GmbH, priority 2013, dated 2017).
